According to ChEMBL document CHEMBL1140924, “Biomedical application of orexin/hypocretin receptor ligands in neuroscience” (J Med Chem, 2009):
In brackets after ≈: the same amount, converted by molar mass.

How the values were obtained:
[1] = biological target: T1, Orexin receptor type 2 (Homo sapiens, UniProt O43614); assay: Antagonist activity at OX2 receptor by FLIPR; type: functional
T1 sequence (O43614 whole entry): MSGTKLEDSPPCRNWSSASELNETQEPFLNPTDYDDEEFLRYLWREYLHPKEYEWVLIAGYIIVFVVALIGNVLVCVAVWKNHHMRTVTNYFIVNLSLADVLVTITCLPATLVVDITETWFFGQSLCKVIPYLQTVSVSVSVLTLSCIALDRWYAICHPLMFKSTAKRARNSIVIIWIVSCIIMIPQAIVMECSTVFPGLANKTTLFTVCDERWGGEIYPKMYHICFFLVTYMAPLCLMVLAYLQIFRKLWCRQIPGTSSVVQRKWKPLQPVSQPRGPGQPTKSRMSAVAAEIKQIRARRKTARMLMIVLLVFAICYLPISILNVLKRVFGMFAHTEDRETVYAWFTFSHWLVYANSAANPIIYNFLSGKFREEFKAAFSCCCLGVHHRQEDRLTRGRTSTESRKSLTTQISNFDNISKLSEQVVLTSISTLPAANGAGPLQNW

[2] = biological target: T2, Orexin/Hypocretin receptor type 1 (Homo sapiens, UniProt O43613); assay: Antagonist activity at OX1 receptor by FLIPR; type: functional
T2 sequence (O43613 whole entry): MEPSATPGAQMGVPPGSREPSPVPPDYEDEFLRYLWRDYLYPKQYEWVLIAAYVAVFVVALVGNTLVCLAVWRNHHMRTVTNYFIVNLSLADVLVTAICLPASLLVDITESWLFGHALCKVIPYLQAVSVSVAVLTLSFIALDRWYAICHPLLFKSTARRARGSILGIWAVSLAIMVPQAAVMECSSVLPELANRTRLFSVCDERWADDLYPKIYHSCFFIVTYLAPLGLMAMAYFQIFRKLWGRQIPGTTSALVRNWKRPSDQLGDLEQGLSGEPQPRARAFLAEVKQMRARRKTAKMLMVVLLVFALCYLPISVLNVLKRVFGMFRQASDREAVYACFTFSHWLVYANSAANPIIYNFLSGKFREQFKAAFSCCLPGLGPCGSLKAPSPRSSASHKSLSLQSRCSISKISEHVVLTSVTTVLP

[3] = biological target: T1, Orexin receptor type 2; assay: Binding affinity to OX2 receptor
[4] = Selectivity of Ki for OX1 receptor to Ki for OX2 receptor
[5] = biological target: T3, Neuropeptide Y receptor type 1 (Homo sapiens) (UniProt P25929); assay: Inhibition of NPY1 receptor at 10 uM
T3 sequence (whole entry): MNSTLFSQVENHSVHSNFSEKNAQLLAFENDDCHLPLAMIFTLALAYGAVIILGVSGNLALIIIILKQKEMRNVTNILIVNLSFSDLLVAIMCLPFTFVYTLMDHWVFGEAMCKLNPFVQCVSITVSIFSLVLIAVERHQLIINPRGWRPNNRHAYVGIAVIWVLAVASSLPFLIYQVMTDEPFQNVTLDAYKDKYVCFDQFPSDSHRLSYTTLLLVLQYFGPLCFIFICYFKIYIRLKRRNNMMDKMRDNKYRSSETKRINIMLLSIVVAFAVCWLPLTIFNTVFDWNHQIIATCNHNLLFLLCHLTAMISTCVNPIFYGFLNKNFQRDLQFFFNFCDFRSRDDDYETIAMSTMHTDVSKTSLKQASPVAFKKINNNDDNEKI

[6] = biological target: Kappa-type opioid receptor (Homo sapiens) (UniProt P41145); assay: Inhibition of kappa opioid receptor at 10 uM
[7] = biological target: T4, Neuromedin-K receptor (Homo sapiens) (UniProt P29371); assay: Inhibition of neurokinin-3 receptor at 10 uM
T4 sequence (whole entry): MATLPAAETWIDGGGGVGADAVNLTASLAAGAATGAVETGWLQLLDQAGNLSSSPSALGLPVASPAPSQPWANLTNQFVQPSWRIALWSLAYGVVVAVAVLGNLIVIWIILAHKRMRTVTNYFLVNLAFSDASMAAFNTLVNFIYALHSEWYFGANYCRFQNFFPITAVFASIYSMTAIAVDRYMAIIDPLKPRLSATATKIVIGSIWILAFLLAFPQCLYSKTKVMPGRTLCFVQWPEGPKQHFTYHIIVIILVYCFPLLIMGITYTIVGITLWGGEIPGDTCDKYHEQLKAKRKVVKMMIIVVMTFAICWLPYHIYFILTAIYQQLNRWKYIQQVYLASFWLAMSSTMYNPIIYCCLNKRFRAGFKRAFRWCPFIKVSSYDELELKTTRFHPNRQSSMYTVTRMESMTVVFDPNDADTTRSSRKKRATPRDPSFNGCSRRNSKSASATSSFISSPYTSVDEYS

[8] = biological target: T2, Orexin/Hypocretin receptor type 1; assay: Binding affinity to OX1 receptor
[9] = Selectivity for OX1 receptor over OX2 receptor
[10] = Inhibition of galanin receptor at 10 uM
[11] = Inhibition of neuropeptide Y receptor at 10 uM
[12] = biological target: T5, Orexin/Hypocretin receptor type 1 (Homo sapiens) (UniProt O43613); assay: Antagonist activity at human OX1 receptor expressed in CHO cells assessed as inhibition of receptor-mediated calcium response by FLIPR; type: functional, cell-based
T5 sequence (whole entry): T2 sequence (O43613 whole entry)

[13] = biological target: T6, Orexin receptor type 2 (Homo sapiens) (UniProt O43614); assay: Antagonist activity at human OX2 receptor expressed in CHO cells assessed as inhibition of receptor-mediated calcium response by FLIPR; type: functional, cell-based
T6 sequence (whole entry): T1 sequence (O43614 whole entry)

[14] = biological target: T2, Orexin/Hypocretin receptor type 1; assay: Antagonist activity at human OX1 receptor; type: functional
[15] = biological target: T1, Orexin receptor type 2; assay: Antagonist activity at human OX2 receptor; type: functional
[16] = Aqueous solubility at pH 7; type: physicochemical

Kappa-type opioid receptor (Homo sapiens), sequence (P41145 whole entry): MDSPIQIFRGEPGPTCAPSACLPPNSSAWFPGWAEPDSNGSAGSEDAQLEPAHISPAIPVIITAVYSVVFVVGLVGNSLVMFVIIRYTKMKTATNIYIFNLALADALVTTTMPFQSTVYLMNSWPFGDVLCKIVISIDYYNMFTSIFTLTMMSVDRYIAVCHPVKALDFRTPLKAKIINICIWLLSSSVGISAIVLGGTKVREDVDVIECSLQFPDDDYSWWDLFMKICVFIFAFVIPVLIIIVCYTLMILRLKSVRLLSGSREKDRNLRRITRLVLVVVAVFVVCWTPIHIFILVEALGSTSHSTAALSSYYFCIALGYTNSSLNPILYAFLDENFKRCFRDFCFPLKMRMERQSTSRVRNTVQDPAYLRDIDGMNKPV

CCc1nc(OC)c2n1CCN([C@@H](C(=O)NC)c1ccccc1)[C@H]2CCc1ccc(C)c(F)c1
IC50 [1]: 2 nM | IC50 [2]: 49 nM

CC1(C)OC[C@H](NC(=O)Nc2ccc(Br)cc2Br)[C@H](c2ccccc2)O1
Ki [3]: 3160 nM | Ratio [4]: 600 | inhibition [5]: < 40% | inhibition [6]: < 40% | inhibition [7]: < 40%

CCc1nc(OC)c2n1CCN([C@@H](C(=O)NC)c1ccccc1)[C@H]2CCc1ccc(C)c(C)c1
IC50 [1]: 4 nM | IC50 [2]: 5 nM

Cc1cc(NC(=O)Nc2ccc(N(C)C)cc2)c2cc(F)cc(F)c2n1
Kd [8]: 26.9 nM | Ratio [9]: > 50

CN(C)c1ccc(NC(=O)Nc2ccnc3c(F)ccc(F)c23)cc1
Kd [8]: 4.47 nM | Ratio [9]: > 50

Cc1nc(C(=O)N2CCC[C@H]2Cc2nnc(-c3ccccc3)o2)c(-c2ccccc2F)s1
Kd [8]: 5.13 nM | Ratio [9]: > 100

CCN(Cc1ccn(C)n1)C(=O)CN(c1cc(N(C)C)ccc1Cl)S(=O)(=O)c1ccc(OC)c(OC)c1
IC50 [1]: 7 nM | IC50 [2]: 12 nM

Cc1cccc(-c2sc(CCCO)nc2C(=O)N2C[C@H]3C[C@H]3[C@H]2CNC(=O)c2c(C)nc3sccn23)c1
IC50 [1]: 17 nM | IC50 [2]: 19 nM

COc1cc2c(cc1OC)CN(C(=O)[C@@H](NCc1ccncc1)C(C)(C)C)CC2
inhibition [10]: < 30% | inhibition [11]: < 30%

Cn1ccc2cc(NC(=O)Nc3ccnc4ccccc34)ccc21
pKb [12]: 7.5 | pKb [13]: 5.6

COc1cc2c(cc1OC)CN(C(=O)C(Cc1ccccc1)C(=O)c1cc(Cl)cc(Cl)c1)CC2 (racemic)
IC50 [14]: 5300 nM | IC50 [15]: 36 nM

CCN(Cc1cccc(C)n1)C(=O)CN(c1cc(N(C)C)ccc1Cl)S(=O)(=O)c1ccc(OC)c(OC)c1
IC50 [1]: 5 nM | IC50 [2]: 17 nM

COc1cc2c(cc1OC)CN(C(=O)C(Cc1ccccc1)c1ccccc1)CC2 (racemic)
solubility [16]: 810 µg/mL (≈ 2020 µM)

CCN(Cc1cc(C)n(C)n1)C(=O)CN(c1cc(N(C)C)ccc1Cl)S(=O)(=O)c1ccc(OC)c(OC)c1
IC50 [1]: 4 nM | IC50 [2]: 6 nM

CC1(C)OC[C@H](NC(=O)Nc2ccccc2C(F)(F)F)[C@H](c2ccccc2)O1
Ki [3]: > 10000 nM | Ratio [4]: 100 | Ki [8]: 100 nM

CNC1CCCC1CN[C@H](C(=O)N1CCc2cc(OC)c(OC)cc2C1)C(C)(C)C (stereo partly drawn)
IC50 [14]: 3600 nM | IC50 [15]: 28 nM

Cc1ccc(NC(=O)N[C@H]2COC(C)(C)O[C@H]2c2ccccc2)c(C)c1
Ki [3]: > 10000 nM | Ratio [4]: 70 | Ki [8]: 126 nM
